Test results published in ChEMBL document CHEMBL3608252, “Dietziamides, novel tetramic acid dimers from Dietzia timorensis MZ-3 with antioxidative activity” (Bioorg Med Chem Lett, 2015).
Active and inactive are the calls of the source. No cut-off for these calls is given here.

Experiments:
Bacillus subtilis = experiment: Antimicrobial activity against Bacillus subtilis assessed as growth inhibition at 1.25 to 10 ug/disk incubated for 1 to 2 days by disk diffusion assay; format: functional, organism-based
Saccharomyces cerevisiae = experiment: Antimicrobial activity against Saccharomyces cerevisiae assessed as growth inhibition at 1.25 to 10 ug/disk incubated for 1 to 2 days by disk diffusion assay; format: functional, organism-based
Candida albicans = experiment: Antimicrobial activity against Candida albicans assessed as growth inhibition at 1.25 to 10 ug/disk incubated for 1 to 2 days by disk diffusion assay; format: functional, organism-based
P388 = experiment: Cytotoxicity against mouse P388 cells at 0.78 to 100 uM after 4 days by MTT assay; format: functional, cell-based
[1] = Antioxidant activity assessed as DPPH redical scavenging activity incubated for 2 hrs in dark condition; format: physicochemical

In the case of `C/C=C1\NC(=O)C(CC2=C(O)/C(=C/C)NC2=O)=C1O`, the “growth inhibition (GI)” value (Bacillus subtilis) is reported as “inactive”, the “growth inhibition (GI)” value (Saccharomyces cerevisiae) is reported as “inactive” and the “growth inhibition (GI)” value (Candida albicans) is reported as “inactive”. The Activity (P388) was “inactive” and the IC50 [1] was 34 µM.

With `O=C1O[C@H]([C@@H](O)CO)C(O)=C1O` [ASCORBIC ACID] the IC50 [1] was 13 µM.

With `C/C=C1\NC(=O)C(C(C2=C(O)/C(=C/C)NC2=O)[C@H](O)CO)=C1O` (stereo partly specified) the “growth inhibition (GI)” value (Bacillus subtilis) was “inactive”, the “growth inhibition (GI)” value (Saccharomyces cerevisiae) was “inactive” and the “growth inhibition (GI)” value (Candida albicans) was “inactive”. The Activity (P388) was “inactive” and the IC50 [1] was 37 µM.
